Legend:
Assay in all cases: growth AUC relative to DMSO control (fraction); higher = more growth (less inhibition)
Conditions in all cases: 24 h
Eubacterium rectale = test system: Eubacterium rectale
Procedure: (§1)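 Validation screen: 11 independently purchased pesticides tested on 8 gut bacterial strains at 2.5–320 µM in mGAM, anaerobic, 37 °C, 24 h. Growth AUC normalised to DMSO controls, mean of 3 independent experiments.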

Escherichia coli IAI1 = test system: Escherichia coli IAI1
Procedure: as §1

[1] = test system: Parabacteroides distasonis
Procedure: as §1

Streptococcus salivarius = test system: Streptococcus salivarius
Procedure: as §1

Lactobacillus gasseri = test system: Lactobacillus gasseri
Procedure: as §1

Bacteroides uniformis = test system: Bacteroides uniformis
Procedure: as §1

Clostridium difficile = test system: Clostridium difficile
Procedure: as §1

Roseburia intestinalis = test system: Roseburia intestinalis
Procedure: as §1

O=C(Oc1ccccc1)n1c(C(F)(F)F)nc2cc(Cl)c(Cl)cc21 [FENAZAFLOR]
growth AUC
Conditions	Bacteroides uniformis	Clostridium difficile	Escherichia coli IAI1	Eubacterium rectale	Lactobacillus gasseri	Roseburia intestinalis	Streptococcus salivarius	[1]
2.5 µM	0.972	0.824	0.97	0.987	1.06	1.05	1.07	0.939
5 µM	0.914	0.854	0.837	0.875	0.99	0.968	0.876	0.6
10 µM	0.686	0.595	0.679	0.642	0.837	0.887	0.658	0.314
20 µM	0.492	0.705	0.617	0.407	0.448	0.582	0.513	0.174
40 µM	0.171	0.00756	0.383	0.255	0.168	0.22	0.0266	0.0387
80 µM	0.00285	0.0273	0.00144	0.106	0.0839	0.0682	0.0113	0.0173
160 µM	0.00332	0.0114	0.00384	0.0493	0.0514	0.0676	0.00976	0.0144
320 µM	0.0184	0.0253	0.0222	0.106	0.0326	0.0375	0.0373	0.0614

C=CCOC(Cn1ccnc1)c1ccc(Cl)cc1Cl.O=S(=O)(O)O (stereo unspecified) [IMAZALIL SULFATE]
growth AUC
Conditions	Bacteroides uniformis	Clostridium difficile	Escherichia coli IAI1	Eubacterium rectale	Lactobacillus gasseri	Roseburia intestinalis	Streptococcus salivarius	[1]
2.5 µM	1.04	1.02	0.998	0.622	1.07	0.943	1.05	1.02
5 µM	1	0.962	0.975	0.322	0.958	0.906	1.01	0.948
10 µM	1.01	0.944	0.956	0.0607	0.976	0.861	0.963	0.856
20 µM	0.971	1.01	0.96	0.0382	0.92	0.459	0.978	0.922
40 µM	0.976	0.915	0.942	0.0278	0.946	0.0225	0.961	0.732
80 µM	0.928	0.797	0.961	0.014	0.881	0.0276	0.944	0.587
160 µM	0.836	0.515	0.879	0.0363	0.788	0.0196	0.999	0.145
320 µM	0.413	0.219	0.776	0.0159	0.414	0.0118	0.705	0.0186

COC(=O)N(OC)c1ccccc1COc1ccn(-c2ccc(Cl)cc2)n1 [PYRACLOSTROBIN]
growth AUC
Conditions	Bacteroides uniformis	Clostridium difficile	Escherichia coli IAI1	Eubacterium rectale	Lactobacillus gasseri	Roseburia intestinalis	Streptococcus salivarius	[1]
2.5 µM	1.01	1.03	1.02	1.17	1.06	0.955	1.11	0.922
5 µM	0.994	1.01	1.02	1.12	1.01	0.923	1.09	0.798
10 µM	0.955	1	1.01	1.18	0.997	0.957	1.07	0.705
20 µM	0.988	1.01	1.01	1.16	0.955	0.859	1.12	0.626
40 µM	0.926	1.03	1.01	1.18	0.989	0.975	1.08	0.401
80 µM	0.914	1.04	0.999	1.13	0.914	0.919	1.02	0.26
